Measured values published in ChEMBL document CHEMBL3885861, “Open TG-GATES”.

Species: Rattus norvegicus
Test: Open TG-GATES - Regimen: Single
Format: toxicity, organism-based, Sprague-Dawley
Design: regimen Single, gender Male, age 6 weeks
Settings: in vivo, po, 30 mg/kg, route gavage, dose level High; for APTT / Bas / Eos / Fbg / Hb / Ht / Lym / MCH / MCHC / MCV / Mono / Neu / PT / Plat / RBC / Ret / WBC: tissue Blood; for KIDNEY_L / KIDNEY_R / KIDNEY_TOTAL: tissue Kidney; for LIVER: tissue Liver; for A/G / ALP / ALT / AST / BUN / CRE / Ca / Cl / DBIL / GLC / IP / K / LDH / Na / PL / RALB / TBIL / TC / TG / TP / gamma-GTP: tissue Plasma

Nc1c2c(nc3ccccc13)CCCC2 [TACRINE]
TERMINAL_BW (3 h): 205 g
APTT (3 h): 21.4 s
Bas (3 h): 0%
Eos (3 h): 0.6%
Fbg (3 h): 313.8 mg/dL
Hb (3 h): 13.4 g/dL
Ht (3 h): 39.4%
Lym (3 h): 71%
MCH (3 h): 21.4 pg
MCHC (3 h): 34.1%
MCV (3 h): 62.7 fL
Mono (3 h): 2.6%
Neu (3 h): 25%
PT (3 h): 16.4 s
Plat (3 h): 124.7 x10_4/uL
RBC (3 h): 628.2 x10_4/ul
Ret (3 h): 8.7%
WBC (3 h): 55.6 x10_2/uL
KIDNEY_L (3 h): 0.9 g
KIDNEY_R (3 h): 0.9 g
KIDNEY_TOTAL (3 h): 1.9 g
LIVER (3 h): 9 g
A/G (3 h): 1.3
ALP (3 h): 1523.2 IU/L
ALT (3 h): 49.8 IU/L
AST (3 h): 152.2 IU/L
BUN (3 h): 12.6 mg/dL
CRE (3 h): 0.2 mg/dL
Ca (3 h): 10.4 mg/dL
Cl (3 h): 103.8 meq/L
DBIL (3 h): 0 mg/dL
GLC (3 h): 269.6 mg/dL
IP (3 h): 9.9 mg/dL
K (3 h): 3.6 meq/L
LDH (3 h): 369.4 IU/L
Na (3 h): 139.2 meq/L
PL (3 h): 142.6 mg/dL
RALB (3 h): 3.2 g/dL
TBIL (3 h): 0.022 mg/dL
TC (3 h): 78 mg/dL
TG (3 h): 69.8 mg/dL
TP (3 h): 5.7 g/dL
gamma-GTP (3 h): 1.2 IU/L
TERMINAL_BW (6 h): 199.4 g
APTT (6 h): 20.8 s
Bas (6 h): 0%
Eos (6 h): 0.4%
Fbg (6 h): 327.2 mg/dL
Hb (6 h): 14 g/dL
Ht (6 h): 40.4%
Lym (6 h): 67%
MCH (6 h): 21.1 pg
MCHC (6 h): 34.6%
MCV (6 h): 61 fL
Mono (6 h): 3%
Neu (6 h): 29%
PT (6 h): 15.7 s
Plat (6 h): 124.5 x10_4/uL
RBC (6 h): 662.6 x10_4/ul
Ret (6 h): 7.7%
WBC (6 h): 64.5 x10_2/uL
KIDNEY_L (6 h): 0.9 g
KIDNEY_R (6 h): 0.9 g
KIDNEY_TOTAL (6 h): 1.8 g
LIVER (6 h): 8.9 g
A/G (6 h): 1.2
ALP (6 h): 1476.6 IU/L
ALT (6 h): 51.8 IU/L
AST (6 h): 199.8 IU/L
BUN (6 h): 13.4 mg/dL
CRE (6 h): 0.2 mg/dL
Ca (6 h): 10.6 mg/dL
Cl (6 h): 106.4 meq/L
DBIL (6 h): 0 mg/dL
GLC (6 h): 221.4 mg/dL
IP (6 h): 9.3 mg/dL
K (6 h): 3.9 meq/L
LDH (6 h): 347.2 IU/L
Na (6 h): 142 meq/L
PL (6 h): 146.4 mg/dL
RALB (6 h): 3.3 g/dL
TBIL (6 h): 0.02 mg/dL
TC (6 h): 81.6 mg/dL
TG (6 h): 45.4 mg/dL
TP (6 h): 6 g/dL
gamma-GTP (6 h): 1 IU/L
TERMINAL_BW (9 h): 202.2 g
APTT (9 h): 21 s
Bas (9 h): 0%
Eos (9 h): 0.4%
Fbg (9 h): 339.6 mg/dL
Hb (9 h): 13.4 g/dL
Ht (9 h): 38.9%
Lym (9 h): 53%
MCH (9 h): 21 pg
MCHC (9 h): 34.3%
MCV (9 h): 61.3 fL
Mono (9 h): 3%
Neu (9 h): 43%
PT (9 h): 15.6 s
Plat (9 h): 128.9 x10_4/uL
RBC (9 h): 634.8 x10_4/ul
Ret (9 h): 8.3%
WBC (9 h): 78.6 x10_2/uL
KIDNEY_L (9 h): 0.9 g
KIDNEY_R (9 h): 0.9 g
KIDNEY_TOTAL (9 h): 1.8 g
LIVER (9 h): 8.4 g
A/G (9 h): 1.3
ALP (9 h): 1511.6 IU/L
ALT (9 h): 64.4 IU/L
AST (9 h): 283 IU/L
BUN (9 h): 11.6 mg/dL
CRE (9 h): 0.2 mg/dL
Ca (9 h): 10.7 mg/dL
Cl (9 h): 106.2 meq/L
DBIL (9 h): 0.004 mg/dL
GLC (9 h): 222.6 mg/dL
IP (9 h): 9 mg/dL
K (9 h): 3.8 meq/L
LDH (9 h): 264.6 IU/L
Na (9 h): 141.4 meq/L
PL (9 h): 160.2 mg/dL
RALB (9 h): 3.3 g/dL
TBIL (9 h): 0.012 mg/dL
TC (9 h): 84 mg/dL
TG (9 h): 42.2 mg/dL
TP (9 h): 5.9 g/dL
gamma-GTP (9 h): 1 IU/L
TERMINAL_BW (24 h): 192.1 g
APTT (24 h): 20.8 s
Bas (24 h): 0%
Eos (24 h): 1%
Fbg (24 h): 351.6 mg/dL
Hb (24 h): 14.3 g/dL
Ht (24 h): 40.9%
Lym (24 h): 84.4%
MCH (24 h): 21.3 pg
MCHC (24 h): 34.8%
MCV (24 h): 61.2 fL
Mono (24 h): 2.2%
Neu (24 h): 12.4%
PT (24 h): 16.1 s
Plat (24 h): 130.3 x10_4/uL
RBC (24 h): 668.8 x10_4/ul
Ret (24 h): 6.7%
WBC (24 h): 68.9 x10_2/uL
KIDNEY_L (24 h): 0.9 g
KIDNEY_R (24 h): 0.9 g
KIDNEY_TOTAL (24 h): 1.8 g
LIVER (24 h): 7.7 g
A/G (24 h): 1.3
ALP (24 h): 1513.8 IU/L
ALT (24 h): 44.4 IU/L
AST (24 h): 121.6 IU/L
BUN (24 h): 15 mg/dL
CRE (24 h): 0.2 mg/dL
Ca (24 h): 10.8 mg/dL
Cl (24 h): 107.8 meq/L
DBIL (24 h): 0.008 mg/dL
GLC (24 h): 187.6 mg/dL
IP (24 h): 8.8 mg/dL
K (24 h): 4.2 meq/L
LDH (24 h): 259.6 IU/L
Na (24 h): 142.2 meq/L
PL (24 h): 140.4 mg/dL
RALB (24 h): 3.2 g/dL
TBIL (24 h): 0.042 mg/dL
TC (24 h): 88.6 mg/dL
TG (24 h): 31.6 mg/dL
TP (24 h): 5.8 g/dL
gamma-GTP (24 h): 1 IU/L
